{"source": "patent US20240190823A1", "about": "“NRF2 INHIBITORS AND USES THEREOF” (Board of Trustees of Michigan State University, priority 2021, published 2024)", "key": {"A549 cells [1]": {"tested_on": "A549 cells", "assay": "In vivo treatment study, subcutaneous A549 xenograft", "conditions": "for tumor growth (tumor volume): i.p. daily (M-F), compound 1 50 mg/kg BID, carboplatin 5 mg/kg", "protocol": "Male athymic nude mice (Harlan Laboratories, 6 week-old) were injected in the flank with 5×10^6 A549 cells. Cell line authenticity and absence of pathogens in the A549 cells were confirmed before establishing the model (I DEXX BioAnalytics). […] All mice were weighed twice a week, and tumors were measured twice a week using a caliper. All mice were sacrificed after 4 weeks of treatment and harvested for analysis of Nrf2 expression and cell proliferation.\nTumors were harvested and fixed in 10% neutral buffered formalin. Sectioned were obtained for immunohistochemistry staining. Sodium citrate buffer (10 mM, Vector) was used for antigen retrieval. 3% hydrogen peroxide (15-minute incubation) was used to quench the endogenous peroxidase activity. Sections were stained with PCNA (1:200, Santa Cruz) or Nrf2 (1:200, Novus Biologicals) antibodies for 1 hour at room temperature or overnight at 4° C., respectively. Anti-mouse and anti-rabbit secondary antibodies conjugated to HRP were purchased from Cell Signaling Technology. Signal was detected using a DAB kit (Cell Signaling Technology) and sections were counterstained with hematoxylin (Vector)."}, "A549 cells [2]": {"tested_on": "A549 cells", "assay": "Chemoresistance assay (Celltiter-glo)", "conditions": "72 hours"}, "[3]": {"tested_on": "NF-κB pathway proteins (IκBa, NF-κB, p-NF-κB), cyclinG1 and STAT3", "assay": "Western blotting of other cellular proteins (selectivity)", "assay_type": "cell-based", "protocol": "Protein concentrations were measured using the BCA assay (Sigma-Aldrich). 20 μg of protein were separated by 10% SDS-PAGE gels and transferred to nitrocellulose membranes. Nrf2 (Novus Biologicals, 1:1000), NQO1 (Abcam, 1:1000), HO-1 (Abcam, 1:1000), Keap1 (Cell Signaling Technology, 1:1000), NF-κB (Cell Signaling Technology, 1:1000), IκBα (Cell Signaling Technology, 1:1000) Cyclin G1 (Santa Cruz, 35 1:1000), β-TrCP (Cell Signaling Technology, 1:1000), STAT3 (Cell Signaling Technology, 1:1000), Ubiquitin (Cell Signaling Technology, 1:1000), Histone 3 (Cell Signaling Technology, 1:4000), GAPDH (Santa Cruz, 1:4000) and Vinculin (Cell Signaling Technology, 1:4000) primary antibodies were applied to detect the corresponding proteins. Secondary antibodies (anti-rabbit or anti-mouse linked to HRP, 1:1000) were purchased from Cell Signaling Technology. ECL Western blotting substrate (GE Healthcare Life Sciences, UK) was used to detect the signal. […] Protein quantification was done using ImageJ."}, "MCF-10A cells": {"tested_on": "MCF-10A cells", "assay": "Cell growth assay, MTT, MCF-10A cells", "assay_type": "cell-based", "conditions": "concentrations<20 μM (data not shown)", "protocol": "(§1) To evaluate cell proliferation in 2D culture, a MTT assay was performed. Cells were seeded in 96-well plates with 2000 cells/well in their corresponding growth media. […] To assess cell growth in 3D culture, A549, H460 and A427 cells were plated in 0.6% soft agar for 7 days. A Cytation 3 imaging reader from BioTek with Gen5 3.04 software was used to quantify colonies. Seven pictures were taken every 100 μm and superimposed together by z-projection function. Colonies>50 μm in diameter were quantified for each cell line.\n(§2) Besides its anti-oxidative properties, Nrf2 also contributes to tumor cell growth. Nrf2 not only regulates cell proliferation as a downstream mediator of several onco-proteins but also reprograms cellular metabolism to favor anabolic pathways."}, "A549 cells [4]": {"tested_on": "A549 cells", "assay": "Reactive oxygen species (ROS) assay", "conditions": "24 hours, then tBHP for 15 minutes"}, "Nrf2 pathway": {"tested_on": "Nrf2 pathway", "assay": "RT-qPCR of targets downstream of Nrf2 in A549 cells", "conditions": "24 hours of treatment"}, "[5]": {"tested_on": "A549, H460, A427 and MCF-7 cells", "assay": "Cell growth assay, MTT, 2D culture, cancer cells", "assay_type": "cell-based, human", "conditions": "72 hours", "protocol": "as §1, §2"}, "[6]": {"tested_on": "A549, H460 and A427 cells", "assay": "Cell growth in 3D culture (0.6% soft agar)", "assay_type": "cell-based, human", "conditions": "7 days, dose-dependent", "protocol": "as §1, §2"}, "Nrf2": {"target": "T1, Nrf2 (Homo sapiens, UniProt Q16236)", "T1 sequence (Q16236 1-605)": "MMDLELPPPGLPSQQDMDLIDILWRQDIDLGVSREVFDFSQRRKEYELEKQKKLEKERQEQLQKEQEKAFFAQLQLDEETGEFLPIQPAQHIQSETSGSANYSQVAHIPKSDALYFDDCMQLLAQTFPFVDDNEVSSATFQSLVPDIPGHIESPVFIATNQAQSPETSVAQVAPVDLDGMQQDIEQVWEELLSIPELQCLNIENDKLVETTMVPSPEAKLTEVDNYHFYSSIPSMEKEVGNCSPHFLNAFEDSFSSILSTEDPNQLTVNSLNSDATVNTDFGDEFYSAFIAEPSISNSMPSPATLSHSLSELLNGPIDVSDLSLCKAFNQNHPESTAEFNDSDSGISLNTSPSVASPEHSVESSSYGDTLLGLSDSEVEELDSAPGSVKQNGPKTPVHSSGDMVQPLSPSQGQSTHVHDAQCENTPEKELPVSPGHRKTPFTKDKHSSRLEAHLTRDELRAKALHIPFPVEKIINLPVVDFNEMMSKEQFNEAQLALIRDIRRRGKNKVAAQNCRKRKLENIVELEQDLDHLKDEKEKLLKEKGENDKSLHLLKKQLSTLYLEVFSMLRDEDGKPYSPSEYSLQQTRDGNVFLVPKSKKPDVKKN", "conditions": "cited from earlier work"}}, "data": [{"compound": "N.N.O=C([O-])C1(C(=O)[O-])CCC1.[Pt+2]", "note": "[Carboplatin, carboplatin, reference compound]", "values": [{"measurement": "tumor growth (tumor volume)", "setting": "A549 cells [1]; nude mice, four weeks", "value": "failed to arrest tumor growth"}]}, {"compound": "Cc1cc(C)cc(Nc2nc(C)c(-c3ccccc3)cc2C#N)c1", "note": "[Compound 1, 2-((3,5-dimethylphenyl)amino)-6-methyl-5-phenylnicotinonitrile]", "values": [{"measurement": "effect in combination with chemotherapy drugs (carboplatin, doxorubicin, 5-fluorouracil, topotecan) on cell viability", "setting": "A549 cells [2]", "value": "Additive effects"}, {"measurement": "levels of NF-κB pathway proteins and other fast turnover proteins (cyclinG1, STAT3)", "setting": "[3]", "value": "did not change levels"}, {"measurement": "overall expression pattern of abundant cellular proteins", "setting": "[3]; data not shown", "value": "did not alter the overall expression pattern of abundant cellular proteins"}, {"measurement": "cell viability of non-tumorigenic epithelial cells", "setting": "MCF-10A cells", "value": "did not have any effects on cell viability"}, {"measurement": "expression of Nrf2 protein in the tumors", "setting": "A549 cells [1]; immunohistochemistry, vs vehicle control group", "value": "diminished the expression of Nrf2 protein in the tumors"}, {"measurement": "tolerability / body weight", "setting": "A549 cells [1]; nude mice, 50 mg/kg BID i.p., four weeks", "value": "generally well tolerated in the mice without inducing any changes on body weight over time"}, {"measurement": "tumor growth (tumor volume)", "setting": "A549 cells [1]; nude mice, four weeks", "value": "appeared to slow tumor growth, but the change was not statistically significant"}, {"measurement": "ROS production", "setting": "A549 cells [4]", "value": "dose-dependently increased ROS production"}, {"measurement": "mRNA expression of NFE2L2", "setting": "Nrf2 pathway", "value": "did not affect the mRNA expression of NFE2L2"}, {"measurement": "mRNA expression of targets downstream of Nrf2 (NQO1, GCLC, GCLM, GST1A1, UGT1A6)", "setting": "Nrf2 pathway", "value": "significantly (p<0.05) decreased the expression of all these downstream genes"}, {"measurement": "sensitivity of Keap1 mutant (A549, H460) vs Keap1 wildtype (A427, MCF-7) cells", "setting": "[5]; MTT", "value": "higher sensitivity"}, {"measurement": "cell proliferation (MTT)", "setting": "[5]; Keap1 mutant and Keap1 wild-type cancer cells", "value": "inhibited proliferation in various cancer cells"}, {"measurement": "growth in soft agar", "setting": "[6]", "value": "significantly (p<0.05) suppressed the growth"}]}, {"compound": "CCC(=O)O[C@]1(C(=O)CCl)[C@@H](C)C[C@H]2[C@@H]3CCC4=CC(=O)C=C[C@]4(C)[C@@]3(F)[C@@H](O)C[C@@]21C", "note": "[clobetasol propionate]", "values": [{"measurement": "mechanism of Nrf2 degradation", "setting": "Nrf2", "value": "promotes βTrCP-dependent degradation of Nrf2"}]}, {"compound": "brusatol", "values": [{"measurement": "time for Nrf2 protein levels to return to basal levels", "setting": "Nrf2", "value": "≤ 8", "unit": "h"}, {"measurement": "time of maximum reduction of Nrf2", "setting": "Nrf2", "value": "2 to 4", "unit": "h"}]}]}
